Laboratory results: patent US10280184B2, “Heterocyclic kinase inhibitors” (AbbVie Inc., priority 2014, dated 2019)

Target: CSF-1R (Homo sapiens (Human), UniProt P07333)
Test: In vitro CSF-1R kinase activity measured by trFRET
Type: biochemical
Conditions: recombinant human catalytic domain (aa 538-910), 0.1 mM ATP; read-out: CSF-1R enzyme IC50
Method: In Vitro CSF-1R Kinase Activity Measured by Time-Resolved Fluorescence Resonance Energy Transfer (trFRET)
The CSF-1R construct corresponds to recombinant human catalytic domain (aa 538-910), which was purchased from Invitrogen (cat #PV4092). CSF-1R was mixed with peptide substrate (biotin-TYR1, Sequence: Biotin-(Ahx)-GAEEEIYAAFFA-COOH, 4 μM final) at varying inhibitor concentrations in reaction buffer: 50 mM MOPSO pH 6.5, 10 mM MgCl2, 2 mM MnCl2, 2.5 mM DTI, 0.01% BSA, 0.1 mM Na3VO4 and 0.1 mM ATP. After about 60 min incubation at rt, the reaction was quenched by addition of EDTA (final concentration: 100 mM) and developed by addition of detection reagents (final approximate concentrations: 30 mM HEPES pH 7.0, 0.06% BSA, 0.006% Tween-20, 0.24 M KF, 80 ng/mL PT66K (europium labeled anti-phosphotyrosine antibody cat #61T66KLB Cisbio, Bedford, Mass.) and 0.6 μg/mL SAXL (Phycolink streptavidin-allophycocyanin acceptor, cat #PJ25S, Prozyme, San Leandro, Calif.). The developed reaction was incubated in the dark for about 60 min at rt, then read via a time-resolved fluorescence detector (Rubystar, BMG) using a 337 nm laser for excitation and monitoring emission wavelength at 665 nm. Within the linear range of the assay, the observed signal at 665 nm was directly related to phosphorylated product and can be used to calculate the IC50 values.

CSF-1R, sequence (P07333 538-910): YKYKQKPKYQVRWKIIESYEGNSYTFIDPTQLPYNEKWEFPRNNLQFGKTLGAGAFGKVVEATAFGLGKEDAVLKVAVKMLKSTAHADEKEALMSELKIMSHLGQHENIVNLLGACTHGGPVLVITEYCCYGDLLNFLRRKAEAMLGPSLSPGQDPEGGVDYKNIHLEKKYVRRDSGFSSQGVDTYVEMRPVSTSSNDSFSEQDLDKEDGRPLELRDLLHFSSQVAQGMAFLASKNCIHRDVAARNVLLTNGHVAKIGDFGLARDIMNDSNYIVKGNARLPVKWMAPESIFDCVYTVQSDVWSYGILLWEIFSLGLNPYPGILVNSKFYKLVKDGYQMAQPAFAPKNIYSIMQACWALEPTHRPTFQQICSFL

Row | Compound | IC50 [µM]
1 | c1nc2c(Nc3cnn(C4CCOCC4)c3)nc(C3CCCCC3)cn2n1 [A.1.2, 6-cyclohexyl-N-(1-(tetrahydro-2H-pyran-4-yl)-1H-pyrazol-4-yl)-[1,2,4]triazolo[1,5-a]pyrazin-8-amine] | < 0.1
2 | CC(=O)N1CCC(n2cc(Nc3nc(C4CCCCC4)cn4ncnc34)cn2)CC1 [F.1.43, 1-(4-(4-((6-cyclohexyl-[1,2,4]triazolo[1,5-a]pyrazin-8-yl)amino)-1H-pyrazol-1-yl)piperidin-1-yl)ethanone] | < 0.1
3 | OC1CCN(c2ccc(Nc3cc(C4CCCCC4)cn4ncnc34)nc2)CC1 [Example 13, 1-(6-((6-cyclohexyl-[1,2,4]triazolo[1,5-a]pyridin-8-yl)amino)pyridin-3-yl)piperidin-4-ol] | < 0.1
4 | O[C@@H]1CCC[C@@H](n2cc(Nc3nc(C4CCCCC4)cn4ncnc34)cn2)C1 [G.1.2] | < 0.1
5 | Cn1cc(Nc2nc(C3CCCCC3)cn3ncnc23)cn1 [E.1.10, 6-cyclohexyl-N-(1-methyl-1H-pyrazol-4-yl)-[1,2,4]triazolo[1,5-a]pyrazin-8-amine] | < 0.1
6 | c1nc2c(Nc3cn[nH]c3)nc(C3CCCCC3)cn2n1 [A.1.7, 6-cyclohexyl-N-(1H-pyrazol-4-yl)-[1,2,4]triazolo[1,5-a]pyrazin-8-amine] | < 0.1
7 | O=C(O)[C@H]1CC[C@@H](n2cc(Nc3nc(C4CCCCC4)cn4ncnc34)cn2)CC1 [Example 16, cis-4-(4-((6-cyclohexyl-[1,2,4]triazolo[1,5-a]pyrazin-8-yl)amino)-1H-pyrazol-1-yl)cyclohexanecarboxylic acid] | < 0.1
8 | CC(C)n1cc(Nc2nc(C3CCCCC3)cn3ncnc23)cn1 [E.1.1, 6-cyclohexyl-N-(1-isopropyl-1H-pyrazol-4-yl)-[1,2,4]triazolo[1,5-a]pyrazin-8-amine] | < 0.1
9 | CN1CCn2nc(Nc3cc(C4CCCCC4)cn4ncnc34)cc2C1 [E.1.7, 6-cyclohexyl-N-(5-methyl-4,5,6,7-tetrahydropyrazolo[1,5-a]pyrazin-2-yl)-[1,2,4]triazolo[1,5-a]pyridin-8-amine] | < 0.1
10 | C[C@@H]1C[C@@H](n2cc(Nc3nc(C4CCCCC4)cn4ncnc34)cn2)C[C@H](C)N1 [Example 17, 6-cyclohexyl-N-(1-((2R,4S,6S)-2,6-dimethylpiperidin-4-yl)-1H-pyrazol-4-yl)-[1,2,4]triazolo[1,5-a]pyrazin-8-amine] | < 0.1
11 | Cn1cc(Nc2nc(C3CCCC3)cn3ncnc23)cn1 [E.1.8, 6-cyclopentyl-N-(1-methyl-1H-pyrazol-4-yl)-[1,2,4]triazolo[1,5-a]pyrazin-8-amine] | < 0.1
12 | CC(C)(O)Cn1cc(Nc2nc(C3CCCCC3)cn3ncnc23)cn1 [Example 11, 1-(4-((6-cyclohexyl-[1,2,4]triazolo[1,5-a]pyrazin-8-yl)amino)-1H-pyrazol-1-yl)-2-methylpropan-2-ol] | < 0.1
13 | Cn1cc(Nc2nc([C@H]3CC[C@H](C(F)(F)F)CC3)cn3ncnc23)cn1 [E.1.5, N-(1-methyl-1H-pyrazol-4-yl)-6-((1R,4R)-4-(trifluoromethyl)cyclohexyl)-[1,2,4]triazolo[1,5-a]pyrazin-8-amine] | < 0.1
14 | CNC(=O)N1CCC(n2cc(Nc3nc(C4CCCCC4)cn4ncnc34)cn2)CC1 [F.1.44, 4-(4-((6-cyclohexyl-[1,2,4]triazolo[1,5-a]pyrazin-8-yl)amino)-1H-pyrazol-1-yl)-N-methylpiperidine-1-carboxamide] | < 0.1
15 | c1nc2c(Nc3cc4n(n3)CCOC4)cc(C3CCCC3)cn2n1 [Example 12, N-(6-cyclopentyl-[1,2,4]triazolo[1,5-a]pyridin-8-yl)-6,7-dihydro-4H-pyrazolo[5,1-c][1,4]oxazin-2-amine] | < 0.1
16 | CC(C)(O)CCn1cc(Nc2nc(C3CCCCC3)cn3ncnc23)cn1 [A.1.1, 4-(4-((6-cyclohexyl-[1,2,4]triazolo[1,5-a]pyrazin-8-yl)amino)-1H-pyrazol-1-yl)-2-methylbutan-2-ol] | < 0.1
17 | O[C@H]1CCC[C@H](n2cc(Nc3nc(C4CCCCC4)cn4ncnc34)cn2)C1 [G.1.1] | < 0.1
18 | Cn1cc(Nc2nc([C@H]3CC[C@H](C)CC3)cn3ncnc23)cn1 [E.1.3] | < 0.1
19 | c1nc2c(Nc3cnn(C4CCNCC4)c3)nc(C3CCCCC3)cn2n1 [D.1.1, 6-cyclohexyl-N-(1-(piperidin-4-yl)-1H-pyrazol-4-yl)-[1,2,4]triazolo[1,5-a]pyrazin-8-amine] | < 0.1
20 | c1nc2c(Nc3cc4n(n3)CCOC4)cc(C3CCCCC3)cn2n1 [E.1.6, N-(6-cyclohexyl-[1,2,4]triazolo[1,5-a]pyridin-8-yl)-6,7-dihydro-4H-pyrazolo[5,1-c][1,4]oxazin-2-amine] | < 0.1
